Results: patent publication US11045473B2, “Compositions and methods for therapy of prostate cancer using drug combinations to target polyamine biosynthesis and related pathways” (Health Research, Inc., priority 2015, dated 2021)

Legend:
[1] = tested on: LNG53 cells; experiment: Antiproliferative activity of MTDIA in LNCaP cells overexpressing SAT1 in Tet-off system; format: cell-based, human; settings: (-) Tet conditions, Tet removed 24 hours prior to 96 hr MTDIA
Method: Tet was removed 24 hours prior to 96 hr treatment with MTDIA. […] Cells were pre-treated with BENSpm for 24 hours followed by 96 hr treatment with MTDIA.
We next analyzed whether the metabolic stress in CaP cells caused by high biosynthetic flux to maintain polyamine pools can be enhanced by increasing the activity of SAT1. We tested whether this could cause increased secretion of acetylated polyamines, putting intracellular pools in deficit, which should necessitate more biosynthesis, and should therefore potentiate any benefit of inhibiting the MSP. To conduct this analysis we used LNCaP cells that stably overexpress SAT1 in a Tet-off system (LNG53 cells, described in Kee, K., et al. J Biol Chem 279, 27050-27058 (2004)).

[2] = tested on: DU145; experiment: Proliferation / IC50 by trypan blue cell counts, DU145; format: cell-based, human; settings: for effect on cell growth: 8 and 12 days; for IC50: Homo sapiens
Method: (§1) A transition state analog inhibitor of MTAP, Methylthio-DaDMe-Immucillin-A (MTDIA) was previously described and shown to be effective following a 6 or 12 day treatment at ˜10 and 100 nM MTDIA when 20 uM MTA was added to the media in both lung adenocarcinoma cell lines and head and neck squamous carcinoma cell lines, respectively [Basu I, et al. J Biol Chem. 2007; 282:21477-21486; Basu I, et al. J Biol Chem. 2011; 286:4902-491]. 32]. We synthesized MTDIA and the analytical data on the synthesized compound are shown in FIGS. 8A and 8B with the scheme used for synthesis shown in FIG. 6. […] In all three cell lines, the proliferation curves after 12 days of treatment show an IC50 of MTDIA>1 mM in the absence of MTA (FIG. 5B), but in the 10-100 nM range with the addition of 10 or 20 μM MTA. […] Nanomolar range IC50 values are highlighted.
(§2) IC50—The MTAP inhibitor (3R,4S)-1-[(9-Deaza-adenin-9-yl)methyl]-3-hydroxy-4-(methylthiomethyl)-pyrrolidine, or MT-DADMe-Immucillin-A (MTDIA) was synthesized following the synthesis scheme shown in FIG. 6 and based on a known approach. Cells were seeded at 125,000 cells/well (PC-3, DU145, LNCaP) in triplicate in 2 mLs of RPMI medium supplemented with 10% fetal bovine serum, and 1% penicillin streptomycin. After 24 hours the MTDIA and/or MTA was added at the indicated concentrations. Both medium and drug were refreshed every 48 hours. Every 96 hours the cells were trypsinized, ˜2% of cells were removed and counted by trypan blue exclusion and the rest were replated into a larger vessel.

[3] = tested on: MTAP; experiment: Western blot of MTAP protein expression in DU145; format: cell-based, human; settings: DU145, 4 day IC25 and IC50 of MTDIA, presence or absence of MTA
Method: FIG. 9. (A) Proliferation curves for LNCaP, DU145 and PC3 treated with MTDIA in the absence or presence of 10 or 20 uM MTA, for 4 and (B) 8 days. […] (C) Western blot analysis of FaDu, LNCaP, and DU145 cells after indicated treatments of MTA (0, 10, or 20 uM) or the respective 4 day IC25 and IC50 dose of MTDIA for each cell line plus or minus MTA immunoblotted with antibodies against MTAP, SMS, and SRM, with B-actin as a loading control. Western blot images are representative of biological triplicates.
Western Blotting—Whole cell extracts were prepared in RIPA buffer (150 mM NaCl, 1.0% NP-40, 0.5% deoxycholate, 0.1% SDS, 50 mM Tris-HCl pH 8.0, 5 mM EDTA and 0.5 mM PMSF) supplemented with 1× proteinase inhibitor. Protein concentrations were determined by Bradford Assay (Thermo Scientific, Cat #1856209). […] MTAP for Westerns was purchased from Proteintech™ (Cat #11475-1-AP. SRM and SMS were purchased from Abcam® (Cat #ab111884 and ab156879). B-actin antibody for Westerns was purchased from Sigma-Aldrich (Cat #A5441) and GAPDH was from Santa Cruz Biotecnology Inc. (Cat #sc-25778). Films were scanned using the Biorad ChemiDoc XRS, and band intensities were calculated using Image Lab™. Intensity values were normalized to B-actin loading control band intensities and made relative to control treatment conditions.

[4] = tested on: FaDu cells; experiment: IC50 of MTDIA for FaDu cells; format: cell-based; settings: Homo sapiens, 144 h, 6 day treatment, 20 uM MTA
[5] = tested on: PC3; experiment: Proliferation / IC50 by trypan blue cell counts, PC3; format: cell-based, human; settings: for IC50: Homo sapiens; for effect on cell growth: 8 and 12 days
Method: as §1, §2

[6] = tested on: lung adenocarcinoma cell lines; settings: 6 day treatment, 20 uM MTA added to the media; cited from earlier work
[7] = tested on: spermine synthase; experiment: Western blot of spermine synthase in FaDu; format: cell-based, human; settings: treatment with MTDIA
Method: FIG. 9. (A) Proliferation curves for LNCaP, DU145 and PC3 treated with MTDIA in the absence or presence of 10 or 20 uM MTA, for 4 and (B) 8 days. Results of biological triplicates are shown with absolute IC50s indicated for each condition. (C) Western blot analysis of FaDu, LNCaP, and DU145 cells after indicated treatments of MTA (0, 10, or 20 uM) or the respective 4 day IC25 and IC50 dose of MTDIA for each cell line plus or minus MTA immunoblotted with antibodies against MTAP, SMS, and SRM, with B-actin as a loading control. Western blot images are representative of biological triplicates. Band intensity values normalized to B-actin relative to control conditions are indicated below the respective band.
Western Blotting—Whole cell extracts were prepared in RIPA buffer (150 mM NaCl, 1.0% NP-40, 0.5% deoxycholate, 0.1% SDS, 50 mM Tris-HCl pH 8.0, 5 mM EDTA and 0.5 mM PMSF) supplemented with 1× proteinase inhibitor. Protein concentrations were determined by Bradford Assay (Thermo Scientific, Cat #1856209). Samples were resolved on polyacrylamide gels and transferred onto PVDF membranes (Biorad, Cat #162-0177). Blots were incubated with primary antibodies overnight at 4° and with secondaries for 1.5 hours at room temperature. Signals were visualized using Pierce ECL western blotting substrate (Thermo Scientific, Cat #32209) and exposed to film. […]

CSC[C@H]1CN(Cc2c[nH]c3c(N)ncnc23)C[C@@H]1O [MTDIA, (3R,4S)-1-[(9-Deaza-adenin-9-yl)methyl]-3-hydroxy-4-(methylthiomethyl)-pyrrolidine]
sensitivity to MTDIA when SAT1 is overexpressed [1]: much more sensitive | effect on cell growth ([2]; DU145, 100 nM MTDIA, with 20 μM MTA): dramatic effect on cell growth | effect on cell growth ([2]; DU145, 100 nM MTDIA, without MTA): little to no effect | effect on growth ([2]; DU145, 100 nM MTDIA, 4 days, with or without 20 μM MTA): limited effects on growth | blocking cell growth ([2]; DU145, 6 days, low concentrations of MTDIA): no effect at blocking cell growth | IC50 ([2]; DU-145, 96 h, DU145, 4 days, 0 μM MTA): > 1000 µM | IC50 ([2]; DU-145, 96 h, DU145, 4 days, 10 μM MTA): > 1000 µM | IC50 ([2]; DU-145, 96 h, DU145, 4 days, 20 μM MTA): > 1000 µM | IC50 ([2]; DU-145, 192 h, DU145, 8 days, 0 μM MTA): > 1000 µM | IC50 ([2]; DU-145, 192 h, DU145, 8 days, 10 μM MTA): 0.022 µM | IC50 ([2]; DU-145, 192 h, DU145, 8 days, 20 μM MTA): 590 µM | IC50 ([2]; DU-145, 288 h, DU145, 12 days, 0 μM MTA): > 1000 µM | IC50 ([2]; DU-145, 288 h, DU145, 12 days, 10 μM MTA): 0.014 µM | IC50 ([2]; DU-145, 288 h, DU145, 12 days, 20 μM MTA): 0.01 µM | IC50 ([2]; DU-145, 288 h, DU145, 12 days, with 10 or 20 μM MTA): 0.01 to 0.1 µM | MTAP expression [3]: upregulate expression of MTAP | IC50 [4]: ~0.05 µM | IC50 ([5]; PC-3, 96 h, PC3, 4 days, 0 μM MTA): > 1000 µM | IC50 ([5]; PC-3, 96 h, PC3, 4 days, 10 μM MTA): > 1000 µM | IC50 ([5]; PC-3, 96 h, PC3, 4 days, 20 μM MTA): 300 µM | IC50 ([5]; PC-3, 192 h, PC3, 8 days, 0 μM MTA): > 1000 µM | IC50 ([5]; PC-3, 192 h, PC3, 8 days, 10 μM MTA): 100 µM | IC50 ([5]; PC-3, 192 h, PC3, 8 days, 20 μM MTA): 0.09 µM | IC50 ([5]; PC-3, 288 h, PC3, 12 days, 0 μM MTA): > 1000 µM | IC50 ([5]; PC-3, 288 h, PC3, 12 days, 10 μM MTA): 80 µM | IC50 ([5]; PC-3, 288 h, PC3, 12 days, 20 μM MTA): 0.082 µM | IC50 ([5]; PC-3, 288 h, PC3, 12 days, with 10 or 20 μM MTA): 0.01 to 0.1 µM | effect on cell growth ([5]; PC3, 100 nM MTDIA, with 20 μM MTA): dramatic effect on cell growth | effect on cell growth ([5]; PC3, 100 nM MTDIA, without MTA): little to no effect | effect on growth ([5]; PC3, 100 nM MTDIA, 4 days, with or without 20 μM MTA): limited effects on growth | blocking cell growth ([5]; PC3, 6 days, low concentrations of MTDIA): no effect at blocking cell growth | effective concentration [6]: ~10 nM | spermine synthase expression [7]: downregulated
